In the NIST ThermoML archive (doi:10.1016/j.jct.2015.10.013):
Several values for one entry are separate records, joined by “and”; a condition that tells them apart may be missing. Identical values can stand only once.

How the values were obtained:
[1] = Crystal, Calculated from knudsen effusion weight loss
[2] = molar enthalpy of vaporization or sublimation; details: 298.15 K; Crystal; Static calorimetry

CN1c2ccccc2Sc2ccccc21 [10-methylphenothiazine]
[1]
Details	vapor or sublimation pressure
337.16 K	9.9e-05 kPa and 9.8e-05 kPa and 9.7e-05 kPa
339.27 K	0.000127 kPa and 0.000128 kPa and 0.000124 kPa
341.16 K	0.000156 kPa and 0.000152 kPa
343.16 K	0.000187 kPa and 0.000186 kPa and 0.000188 kPa
345.25 K	0.000242 kPa and 0.000237 kPa and 0.000246 kPa
347.15 K	0.000294 kPa and 0.000295 kPa and 0.000286 kPa
349.16 K	0.000354 kPa and 0.000353 kPa and 0.000361 kPa
351.26 K	0.000456 kPa and 0.000445 kPa and 0.00046 kPa
353.16 K	0.000551 kPa and 0.000553 kPa and 0.000539 kPa
355.16 K	0.000655 kPa and 0.000671 kPa
357.26 K	0.000853 kPa and 0.00084 kPa and 0.000822 kPa
359.15 K	0.001002 kPa and 0.001018 kPa and 0.00102 kPa

Details	molar enthalpy [kcal/mol]
[2]	24.8
